Source: patent US20130018033A1, “RAF INHIBITOR COMPOUNDS AND METHODS OF USE THEREOF” (ARRAY BIOPHARMA INC., priority 2009, published 2013)
Where two headings read alike, the source gives them in different places.

Columns and labels:
[1] = test system: subcutaneous LOX xenografts; experiment: Tumor growth inhibition (LOX), Example A3; assay type: in vivo; details: female nude mice, LOX xenograft
Protocol: Female nude mice were implanted subcutaneously on the right flank with approximately 3.5×10^6 LOX cells in 100 μL PBS. Five to seven days later, tumors were measured and mice were randomized into groups of six with average tumor volume in each group of approximately 200 mm^3. Example 23 was dissolved in 80% PEG400/20% ethanol before dosing, and administered PO at a volume of 5 mL/kg. Dosing was vehicle alone on days 1, 2, 3 and 4; and Example 23 at 5 mg/kg on days 1, 2, 3 and 4. Animal weights and tumor volumes were measured using electronic calipers on day 5. Tumor volume was calculated using the formula: volume=(width^2×length)/2.

[2] = molecular target: T1, V600E full-length B-Raf (Homo sapiens, UniProt P15056, V600E); experiment: B-Raf IC50 assay (Example A); assay type: biochemical
T1 construct: 1 μM FSBA-MEK and 20 nM V600E full-length B-Raf; made in house; host or cells: Sf9 insect cells (baculovirus)
Procedure, shortened: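 Sf9-expressed full-length V600E B-Raf (20 nM) phosphorylated 1 µM FSBA-modified wild-type MEK with 4 µM ATP plus [γ-33P]ATP in 25 mM Pipes pH 7.2, 100 mM KCl, 10 mM MgCl2. Enzyme and substrate were preincubated 15 min, and the reaction ran 60 min at 22 °C. It was TCA-quenched and filter-captured, and incorporated radioactivity was scintillation-counted.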

[3] = test system: basal ERK1/2 phosphorylation in Malme-3M cells; experiment: Cellular ERK 1/2 phosphorylation assay (Example A1); assay type: cell-based; details: Homo sapiens, 1 hour incubation, pERK normalized to total ERK, read-out: P-ERK Malme3-M IC50
Procedure, shortened: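 Malme-3M cells (24,000/well, RPMI-1640 with 10% FBS) were treated with compounds for 1 h at 37 °C, 1% DMSO final. Fixed, methanol-permeabilized cells were immunostained for pERK and total ERK and read by infrared fluorescence. pERK signal was normalized to total ERK.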

T1 sequence (P15056 whole entry V600E): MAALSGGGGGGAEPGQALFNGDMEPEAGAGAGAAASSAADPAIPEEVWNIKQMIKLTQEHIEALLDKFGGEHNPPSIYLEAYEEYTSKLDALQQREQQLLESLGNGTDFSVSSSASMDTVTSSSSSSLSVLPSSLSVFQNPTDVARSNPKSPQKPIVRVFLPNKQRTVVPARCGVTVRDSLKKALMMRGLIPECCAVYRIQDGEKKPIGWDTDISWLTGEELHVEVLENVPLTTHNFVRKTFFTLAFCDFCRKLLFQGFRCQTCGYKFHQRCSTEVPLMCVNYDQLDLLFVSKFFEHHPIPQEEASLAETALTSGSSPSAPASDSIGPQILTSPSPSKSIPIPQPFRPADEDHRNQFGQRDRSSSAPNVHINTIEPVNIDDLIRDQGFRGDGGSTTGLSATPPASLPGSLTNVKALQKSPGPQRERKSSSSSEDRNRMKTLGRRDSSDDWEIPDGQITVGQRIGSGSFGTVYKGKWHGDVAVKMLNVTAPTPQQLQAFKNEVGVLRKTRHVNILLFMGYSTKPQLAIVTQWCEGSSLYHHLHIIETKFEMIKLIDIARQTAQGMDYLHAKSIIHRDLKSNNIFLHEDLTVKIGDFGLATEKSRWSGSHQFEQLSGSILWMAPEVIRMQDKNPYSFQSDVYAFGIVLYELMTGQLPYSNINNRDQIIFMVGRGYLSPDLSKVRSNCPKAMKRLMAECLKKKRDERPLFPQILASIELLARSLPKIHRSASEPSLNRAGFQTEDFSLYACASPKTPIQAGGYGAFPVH

**Q.** `Nc1ncnc2c(C(=O)Nc3c(F)ccc(NS(=O)(=O)CCCF)c3F)cccc12` [Example 23, 4-Amino-quinazoline-8-carboxylic acid [2,6-difluoro-3-(3-fluoro-propane-1-sulfonylamino)-phenyl]-amide] was tested. Which “Tumor Volume (mm^3) Day 1” value ([1]; 5 mg/kg PO on days 1-4, Day 1) did it give?
**A.** 221.32 mm^3

**Q.** And the “Tumor Volume (mm^3) Day 3” value ([1]; 5 mg/kg PO on days 1-4, Day 3)?
**A.** 280.81 mm^3

**Q.** And the “Tumor Volume (mm^3) Day 5” value ([1]; 5 mg/kg PO on days 1-4, Day 5)?
**A.** 157.52 mm^3

**Q.** And the IC50 ([2]; B-Raf V600E assay of Example A, read-out: IC50)?
**A.** < 100 nM

**Q.** What about the IC50 ([2]; [γ-33P]ATP incorporation into FSBA-MEK, 4 μM ATP, read-out: BRAF V600E IC50) of the same compound?
**A.** 0.28 nM

**Q.** And the IC50 [3]?
**A.** 3.89 nM
